Reference: PMC10291553, “Exploring Structure–Activity Relationships in Photodynamic Therapy Anticancer Agents Based on Ir(III)-COUPY Conjugates” (Journal of Medicinal Chemistry, 2023)
Several values for one entry are separate records, joined by “and”; a condition that tells them apart may be missing. Equal entries are not always repeated. Where two headings read alike, the source gives them in different places.

Legend:
SK-MEL-28 = assay: Photo- and cytotoxic activity determination (MTT), SK-MEL-28 cells; format: cell-based, human; settings: normoxia; for SK-MEL-28 PI (phototherapeutic index), IC50 dark/IC50 irradiated: 520 nm, dark tested up to 100 μM; for IC50: 48 h drug-free medium
Excerpt: (§1) Having shown that the Ir(III)-COUPY conjugates can sensitize both type I and II ROS through spectroscopic techniques and readily internalize into living cells, their photocytotoxicity was screened in various cancer cell lines. This screening included two representative melanoma cell lines (human A375 and […] human SK-MEL-28) and cancer cells with resistance to the clinical drug cisplatin. For the latter, both sensitive and cisplatin-resistant ovarian cancer cells (A2780 and A2780cis) as well as HeLa cells, which also show a degree of chemoresistance to the platinum anticancer drug in vitro,[54] were used. For the determination of dark and light cytotoxicity, dose–response curves were assayed from both conditions to provide the correspondent IC50 values, which correspond to the concentration needed for inhibition of cell growth by 50%. Phototherapeutic index (PI) was calculated as the ratio of dark to light IC50 value for each compound.
(§2) A375, HeLa, and SK-MEL-28 cells were cultured in Dulbecco’s modified Eagle medium (DMEM) supplemented with 10% FBS, L-glutamine, and 1% penicillin–streptomycin. A2780 and A2780cis cells were grown in RPMI-1640 cell medium supplemented with 10% fetal bovine serum (FBS) and 2 mM L-glutamine. Acquired resistance to cisplatin in the A2780cis cell line was maintained by adding cisplatin 1 μM to culture medium every second passage. Cells were cultured in a humidified incubator at 310 K with 5% CO2 atmosphere and subcultured two or three times a week with appropriate densities and were confirmed to be mycoplasma-free using a standard Hoechst DNA staining method.
(§3) A2780, A2780cis, HeLa, A375, and SK-MEL-28 cells were maintained at logarithmic growth-phase and cultured in 96-well plates at a density of 5000 cells/well in complete medium for 24 h at 310 K, 5% CO2 in a humidified incubator. For hypoxia experiments, a hypoxia condition was set up by Tissue Culture Service at University of Murcia using nitrogen (N2) to displace O2 down to a minimum of 2% in a Forma Steri-Cycle i160 incubator (Thermo Fisher Scientific). Serial dilutions of the compounds were added at the final concentrations in the range of 0–100 μM in a final volume of 100 μL per well. A light-based treatment schedule was performed as follows: 1 h incubation with the compounds in the dark, followed by 1 h incubation under irradiation conditions by placing the Photoreactor EXPO-LED from Luzchem (Canada) fitted with green lamps (final light intensity applied of 1.5 mW/cm^2 at λmax = 520 nm) inside the CO2 incubator. All the cell culture plates subjected to light irradiation included untreated controls to verify that cell viability was not affected by light. Then, treatment-containing media was removed, and fresh media was added for a 48 h cell recovery period; the temperature throughout the experiment remained at 310 K. Dark control samples were placed in the same dark conditions and then kept incubated for 1 h in the dark in the humidified CO2 incubator. Medium was then aspirated by suction, cells were loaded with 50 μL of MTT solution (1 mg/mL) for additional 4 h and then removed, and 50 μL of DMSO was added to solubilize the purple formazan crystals formed in active cells. The absorbance was measured at 570 nm using a microplate reader (FLUOstar Omega), and the IC50 values were calculated based on the inhibitory rate curves using the following equation [drawing 4] 4 where I represents the percentage inhibition of viability observed, Imax is the maximal inhibitory effect, IC50 is the concentration that inhibits 50% of maximal growth, C is the concentration of the treatment, and n is the slope of the semi-logarithmic dose–response sigmoidal curves. The non-linear fitting was performed using SigmaPlot 14.0 software. All experiments were performed in three independent studies with n = 3 replicates per concentration level. For a detailed phototoxicity procedure, ref ([43]) includes technical explanations.

HeLa = assay: Photo- and cytotoxic activity determination (MTT), HeLa cells; format: cell-based; settings: normoxia; for HeLa PI (phototherapeutic index), IC50 dark/IC50 irradiated: 520 nm, dark tested up to 100 μM; for IC50: 48 h drug-free medium
Excerpt: as §1, §2, §3

A2780 = assay: Photo- and cytotoxic activity determination (MTT), A2780 cells; format: cell-based; settings: normoxia; for A2780 PI (phototherapeutic index), IC50 dark/IC50 irradiated: 520 nm, dark tested up to 100 μM; for IC50: 48 h drug-free medium
Excerpt: as §1, §2, §3

A2780cis cells = assay: Photo- and cytotoxic activity determination (MTT), A2780cis cells, normoxia or hypoxia; format: cell-based; settings: for Partial inhibition (% of cell growth inhibition with respect to untreated controls), Hypoxia / Partial inhibition (% of cell growth inhibition with respect to untreated controls), Normoxia: 250 μM, 2 h incubation in the dark, 48 h drug-free recovery; for PI (phototherapeutic index), blue light: 465 nm; for Hypoxia PI (phototherapeutic index) / Normoxia PI (phototherapeutic index): dark tested up to 250 μM; for A2780cis PI (phototherapeutic index), IC50 dark/IC50 irradiated: dark tested up to 100 μM
Excerpt: as §1, §2
as §3, with “Serial dilutions of the compounds were added at the final concentrations in the range of 0–100 μM in a final volume of 100 μL per well.” left out

[1] = 1 h incubation + 1 h green light 520 nm, 1.5 mW cm^–2, read-out: SK-MEL-28 light IC50
[2] = kept in the dark, 2 h treatment, read-out: SK-MEL-28 dark IC50
[3] = 1 h incubation + 1 h green light 520 nm, 1.5 mW cm^–2, read-out: HeLa light IC50
[4] = kept in the dark, 2 h treatment, read-out: HeLa dark IC50
[5] = 1 h incubation + 1 h green light 520 nm, 1.5 mW cm^–2, read-out: A2780 light IC50
[6] = kept in the dark, 2 h treatment, read-out: A2780 dark IC50
[7] = A2780cis, 1 h incubation + 1 h blue light 465 nm, 5 mW/cm2, 48 h drug-free, read-out: 465 nm IC50
[8] = A2780cis, hypoxia 2% O2, 520 nm
[9] = A2780cis, hypoxia 2% O2, dark, tested up to 250 μM, read-out: Hypoxia Dark IC50
[10] = A2780cis, normoxia 21% O2, 520 nm
[11] = A2780cis, normoxia 21% O2, dark, tested up to 250 μM, read-out: Normoxia Dark IC50
[12] = hypoxia, dark, read-out: A2780cis Dark IC50 (microM) Hypoxia
[13] = normoxia, 1 h incubation + 1 h green light 520 nm, 1.5 mW cm^–2, 48 h drug-free medium, read-out: A2780cis light IC50
[14] = normoxia, dark, up to 250 microM, read-out: A2780cis Dark IC50 (microM) Normoxia
[15] = normoxia, kept in the dark, tested up to 100 μM, 2 h treatment, 48 h drug-free medium, read-out: A2780cis dark IC50

CCCCn1c2[n+](c3cc(C(=O)NCCCNC(=O)C[n+]4ccc(/C(C#N)=C5/C=C(C)c6ccc(N(CC)CC)cc6O5)cc4)ccc31)[Ir-3]13([c]4ccccc4-c4[nH]c5ccccc5[n+]41)([c]1ccccc1-c1[nH]c4ccccc4[n+]13)[n+]1c-2ccc2ccccc21 [3a]
SK-MEL-28 PI (phototherapeutic index), IC50 dark/IC50 irradiated (SK-MEL-28): > 67 | IC50 (SK-MEL-28; [1]): 1.5 ± 0.1 µM | IC50 (SK-MEL-28; [2]): > 100 µM | HeLa PI (phototherapeutic index), IC50 dark/IC50 irradiated (HeLa): > 12 | IC50 (HeLa; [3]): 8.6 ± 0.7 µM | IC50 (HeLa; [4]): > 100 µM | A2780 PI (phototherapeutic index), IC50 dark/IC50 irradiated (A2780): > 94 | IC50 (A2780; [5]): 1.07 ± 0.07 µM | IC50 (A2780; [6]): > 100 µM | Partial inhibition (% of cell growth inhibition with respect to untreated controls), Hypoxia (A2780cis cells; A2780cis, hypoxia): 49 ± 4% | Partial inhibition (% of cell growth inhibition with respect to untreated controls), Normoxia (A2780cis cells; A2780cis, normoxia): 58 ± 7% | PI (phototherapeutic index), blue light (A2780cis cells; A2780cis): > 52.6 | IC50 (A2780cis cells; [7]): 1.9 µM | Hypoxia PI (phototherapeutic index) (A2780cis cells; [8]): > 65.8 and > 66 | IC50 (A2780cis cells; [9]): > 250 µM | Normoxia PI (phototherapeutic index) (A2780cis cells; [10]): > 357.1 and > 357 | IC50 (A2780cis cells; [11]): > 250 µM | IC50 (A2780cis cells; hypoxia, 520 nm, read-out: A2780cis Light 520 nm IC50 (microM) Hypoxia): 3.8 ± 0.3 µM | IC50 (A2780cis cells; [12]): > 250 µM | A2780cis PI (phototherapeutic index), IC50 dark/IC50 irradiated (A2780cis cells; normoxia, 520 nm): > 143 | IC50 (A2780cis cells; [13]): 0.7 ± 0.06 µM | IC50 (A2780cis cells; [14]): > 250 µM | IC50 (A2780cis cells; [15]): > 100 µM

CCCCn1c2[n+](c3cc(C(=O)NCCCNC(=O)C[n+]4ccc(/C(C#N)=C5/C=C(C)c6ccccc6O5)cc4)ccc31)[Ir-3]13([c]4ccccc4-c4[nH]c5ccccc5[n+]41)([c]1ccccc1-c1[nH]c4ccccc4[n+]13)[n+]1c-2ccc2ccccc21 [3b]
SK-MEL-28 PI (phototherapeutic index), IC50 dark/IC50 irradiated (SK-MEL-28): > 48 | IC50 (SK-MEL-28; [1]): 2.1 ± 0.2 µM | IC50 (SK-MEL-28; [2]): > 100 µM | HeLa PI (phototherapeutic index), IC50 dark/IC50 irradiated (HeLa): > 6 | IC50 (HeLa; [3]): 18 ± 2 µM | IC50 (HeLa; [4]): > 100 µM | A2780 PI (phototherapeutic index), IC50 dark/IC50 irradiated (A2780): > 14 | IC50 (A2780; [5]): 7.1 ± 0.1 µM | IC50 (A2780; [6]): > 100 µM | Partial inhibition (% of cell growth inhibition with respect to untreated controls), Hypoxia (A2780cis cells; A2780cis, hypoxia): 45 ± 6% | Partial inhibition (% of cell growth inhibition with respect to untreated controls), Normoxia (A2780cis cells; A2780cis, normoxia): 63 ± 5% | PI (phototherapeutic index), blue light (A2780cis cells; A2780cis): > 41.7 | IC50 (A2780cis cells; [7]): 2.4 µM | Hypoxia PI (phototherapeutic index) (A2780cis cells; [8]): > 8.1 | IC50 (A2780cis cells; A2780cis, hypoxia 2% O2, 1 h incubation + 1 h green light 520 nm, 48 h drug-free, read-out: Hypoxia 520 nm IC50): 31 µM | IC50 (A2780cis cells; [9]): > 250 µM | Normoxia PI (phototherapeutic index) (A2780cis cells; [10]): > 4.1 | IC50 (A2780cis cells; [11]): > 250 µM | IC50 (A2780cis cells; [12]): > 250 µM | A2780cis PI (phototherapeutic index), IC50 dark/IC50 irradiated (A2780cis cells; normoxia, 520 nm): > 1.6 | IC50 (A2780cis cells; [13]): 61 ± 8 µM | IC50 (A2780cis cells; [14]): > 250 µM | IC50 (A2780cis cells; [15]): > 100 µM
